Experimental data: ChEMBL document CHEMBL4673322, “Discovery and optimization of a potent and selective indazolamine series of IRAK4 inhibitors” (Bioorg Med Chem Lett, 2021)
≈ marks a conversion by molar mass, not a printed value. One block for each compound: values may come before it.

Legend:
[1] = AUC (0 to 24 hrs) in dog at 2 mg/kg, po; format: ADME, organism-based, Canis lupus familiaris; parameters: time < 24 hr, route oral, dose 2 mg/kg; conditions: in vivo
[2] = AUC (0 to 24 hrs) in monkey at 2 mg/kg, po; format: ADME, organism-based, Macaca mulatta; parameters: time < 24 hr, route oral, dose 2 mg/kg; conditions: rhesus monkey, in vivo
[3] = Half life in dog at 2 mg/kg, po; format: ADME, organism-based, Canis lupus familiaris; conditions: in vivo
[4] = Oral bioavailability in dog at 2 mg/kg; format: ADME, organism-based, Canis lupus familiaris; conditions: in vivo
[5] = Half life in mouse at 1 mg/kg, iv; format: ADME, organism-based; conditions: in vivo
[6] = Oral bioavailability in monkey at 2 mg/kg; format: ADME, organism-based, Macaca mulatta; conditions: rhesus monkey, in vivo
[7] = Clearance in dog at 0.5 mg/kg, iv; format: ADME, organism-based, Canis lupus familiaris; conditions: in vivo
[8] = Clearance in monkey at 0.5 mg/kg, iv; format: ADME, organism-based, Macaca mulatta; conditions: rhesus monkey, in vivo
[9] = Metabolic stability in human liver microsomes assessed as intrinsic clearance; format: ADME, Microsome; conditions: read-out: CLH
[10] = Volume of distribution at steady state in dog at 0.5 mg/kg, iv; format: ADME, organism-based, Canis lupus familiaris; conditions: in vivo, read-out: Vdss
[11] = AUC(0 to 24 hrs) in mouse at 2 mg/kg, po; format: ADME, organism-based; parameters: time < 24 hr, route oral, dose 2 mg/kg; conditions: in vivo
[12] = AUC (0 to 24 hrs) in monkey at 0.5 mg/kg, iv; format: ADME, organism-based, Macaca mulatta; parameters: time < 24 hr, route intravenous, dose 0.5 mg/kg; conditions: rhesus monkey, in vivo
[13] = Clearance in mouse at 1 mg/kg, iv; format: ADME, organism-based; conditions: in vivo
[14] = Apparent permeability across apical to basolateral side; format: ADME; conditions: not told
in vivo = conditions: Sprague-Dawley, rat, iv, 1 mg/kg
Description: Clearance in Sprague-Dawley rat at 1 mg/kg, iv

[15] = Cmax in Sprague-Dawley rat at 10 mg/kg, po; format: ADME, organism-based; parameters: route oral, dose 10 mg/kg; conditions: in vivo
[16] = Volume of distribution at steady state in monkey at 0.5 mg/kg, iv; format: ADME, organism-based, Macaca mulatta; conditions: rhesus monkey, in vivo, read-out: Vdss
[17] = Oral bioavailability in mouse at 2 mg/kg; format: ADME, organism-based; conditions: in vivo
[18] = Metabolic stability in monkey liver microsomes assessed as intrinsic clearance; format: ADME, Macaca mulatta, Microsome; conditions: rhesus monkey, read-out: CLH
[19] = AUC (0 to 24 hrs) in dog at 0.5 mg/kg, iv; format: ADME, organism-based, Canis lupus familiaris; parameters: time < 24 hr, route intravenous, dose 0.5 mg/kg; conditions: in vivo
[20] = Metabolic stability in rat liver microsomes assessed as intrinsic clearance; format: ADME, Microsome; conditions: read-out: CLH
[21] = AUC(0 to 24 hrs) in mouse at 1 mg/kg, iv; format: ADME, organism-based; parameters: time < 24 hr, route intravenous, dose 1 mg/kg; conditions: in vivo
[22] = Half life in dog at 0.5 mg/kg, iv; format: ADME, organism-based, Canis lupus familiaris; conditions: in vivo
[23] = Metabolic stability in dog liver microsomes assessed as intrinsic clearance; format: ADME, Canis lupus familiaris, Microsome; conditions: read-out: CLH
[24] = Half life in Sprague-Dawley rat at 10 mg/kg, po; format: ADME, organism-based; conditions: in vivo
[25] = Metabolic stability in human Hepatocyte assessed as half life; format: ADME, tissue-based; conditions: hepatocytes
[26] = Apparent permeability across basolateral to apical side; format: ADME; conditions: not told
[27] = Half life in monkey at 2 mg/kg, po; format: ADME, organism-based, Macaca mulatta; conditions: rhesus monkey, in vivo
[28] = AUC (0 to 24 hrs) in Sprague-Dawley rat at 10 mg/kg, po; format: ADME, organism-based; parameters: time < 24 hr, route oral, dose 10 mg/kg; conditions: in vivo
[29] = Half life in monkey at 0.5 mg/kg, iv; format: ADME, organism-based, Macaca mulatta; conditions: rhesus monkey, in vivo
physchem = conditions: FaSSIF, pH 6.5
Description: Solubility in FassIF at pH 6.5

[30] = Protein binding in human plasma; format: ADME, cell-free; conditions: read-out: PPB (converted)
[31] = Volume of distribution at steady state in mouse at 1 mg/kg, iv; format: ADME, organism-based; conditions: in vivo, read-out: Vdss
[32] = Metabolic stability in mouse liver microsomes assessed as intrinsic clearance; format: ADME, Microsome; conditions: read-out: CLH
[33] = Oral bioavailability in Sprague-Dawley rat at 5 mg/kg; format: ADME, organism-based; conditions: in vivo
[34] = Cmax in Sprague-Dawley rat at 5 mg/kg, po; format: ADME, organism-based; parameters: route oral, dose 5 mg/kg; conditions: in vivo
[35] = Half life in Sprague-Dawley rat at 5 mg/kg, po; format: ADME, organism-based; conditions: in vivo
[36] = AUC in Sprague-Dawley rat at 5 mg/kg, po; format: ADME, organism-based; parameters: dose 5 mg/kg; conditions: in vivo

Compound: CN(C)CCn1cc2cc(NC(=O)c3cccc(C(F)(F)F)n3)c(C(C)(C)O)cc2n1
AUC(0-t) at 24 h [1]: 0.0853 µg·h/mL
AUC(0-t) at 24 h [2]: 3.67 µg·h/mL
half-life [3]: 6.4 h
bioavailability [4]: 14.4%
half-life [5]: 1.62 h
bioavailability [6]: 49%
clearance [7]: 3.34 L/h/kg
clearance [8]: 0.292 L/h/kg
CLint scaled [9]: 0.315 L/h/kg
Vd [10]: 2.63 L/kg
AUC(0-t) at 24 h [11]: 1.3 µg·h/mL
AUC(0-t) at 24 h [12]: 1.87 µg·h/mL
clearance [13]: 1.03 L/h/kg
Papp A→B [14]: 273 nm/s
clearance (in vivo): 0.498 L/h/kg
Cmax [15]: 2.11 µg/mL
Vd [16]: 0.67 L/kg
bioavailability [17]: 67.3%
CLint scaled [18]: 0.118 L/h/kg
AUC(0-t) at 24 h [19]: 0.148 µg·h/mL
CLint scaled [20]: 0.9 L/h/kg
AUC(0-t) at 24 h [21]: 0.966 µg·h/mL
half-life [22]: 0.72 h
CLint scaled [23]: 6.96 L/h/kg
half-life [24]: 3.3 h
half-life [25]: 9.72 h
Papp B→A [26]: 227 nm/s
half-life [27]: 3.5 h
AUC(0-t) at 24 h [28]: 11.9 µg·h/mL
half-life [29]: 1.96 h
solubility (physchem): 92.3 µM (≈ 40.2 µg/mL)
fraction unbound [30]: 0.014
Vd [31]: 2.43 L/kg
CLint scaled [32]: 0.529 L/h/kg

clearance (in vivo): 0.33 L/h/kg
Cmax [15]: 3.32 µg/mL
half-life [24]: 3.5 h
AUC(0-t) at 24 h [28]: 34.5 µg·h/mL
Compound: COc1cc(NC(=O)c2cccc(C(F)(F)F)n2)cc2cn(CCC(C)(C)O)nc12

bioavailability [33]: 84%
CLint scaled [9]: 0.0768 L/h/kg
Cmax [34]: 2.31 µg/mL
half-life [35]: 3.6 h
CLint scaled [20]: 0.187 L/h/kg
AUC [36]: 18.4 µg·h/mL
CLint scaled [32]: 0.235 L/h/kg
Compound: CC(C)(O)CCn1cc2cc(NC(=O)c3cccc(C(F)(F)F)n3)c(C(C)(C)O)cc2n1
